From US20260295053A1, “COMPOUNDS FOR DEGRADATION AND INHIBITION OF KRAS (G12D) PROTEIN” (Shenzhen Ionova Life Science Co., Ltd., priority 2023, published 2026)

Key:
[1] = test system: AsPC-1 cells; test: AsPC-1 cell proliferation assay (CellTiter Glo); type: cell-based; settings: 6 days
Outline: (§1)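 Half-maximal degradation (DC50) and inhibition (IC50) concentrations are fitted from dose-response curves spanning […] to 1.5 nM final. KRAS G12D loss is measured by fluorescent antibody staining with β-actin reference after 24 h; growth is measured by ATP luminescence after a 6-day exposure.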

[2] = molecular target: T1, KRAS (G12D) (Homo sapiens, UniProt P01116, G12D); test: KRAS (G12D) cellular degradation assay in AsPC-1 cells; type: cell-based; settings: 24 hours, antibody fluorescence (Odyssey CLX), DC50 half-maximal degradation concentration
T1 construct: in-cell western with KRAS G12D antibody after 24 h
T1 sequence (P01116 1-188 isoform P01116-2 G12D): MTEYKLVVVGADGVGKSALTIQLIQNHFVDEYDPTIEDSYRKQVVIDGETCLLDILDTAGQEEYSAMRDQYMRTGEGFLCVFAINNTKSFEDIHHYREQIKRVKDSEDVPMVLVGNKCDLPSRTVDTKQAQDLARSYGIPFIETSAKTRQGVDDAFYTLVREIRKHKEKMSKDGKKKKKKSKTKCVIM
Outline: as §1

IC50 ([1]; Homo sapiens, ASPC1, 144 h)	DC50 [2]	IC50 [1]	Structure (SMILES)
< 10 nM	< 10 nM	–	CCn1nccc1-c1ccc([C@@H](NC(=O)[C@@H]2C[C@@H](O)CN2C(=O)[C@H](C(C)C)n2cc(-c3ccc(COc4c(-c5c(C)c(F)cc6[nH]ncc56)c(C5CC5)cc5c(N6C[C@@H]7C[C@H]6CN7)nc(OC6CC7(COC7)C6)nc45)cc3)nn2)[C@H](C)O)cc1 [Example 100, (2S,4R)-1-((2S)-2-(4-(4-(((2-((2-oxaspiro[3.3]heptan-6-yl)oxy)-4-((1S,4S)-2,5-diazabicyclo[2.2.1]heptan-2-yl)-6-cyclopropyl-7-(6-fluoro-5-methyl-1H-indazol-4-yl)quinazolin-8-yl)oxy)methyl)phenyl)-1H-1,2,3-triazol-1-yl)-3-methylbutanoyl)-N-((1R,2S)-1-(4-(1-ethyl-1H-pyrazol-5-yl)phenyl)-2-hydroxypropyl)-4-hydroxypyrrolidine-2-carboxamide]
–	10 to 100 nM	10 to 100 nM	CCn1nccc1-c1ccc([C@H](CO)NC(=O)[C@@H]2C[C@@H](O)CN2C(=O)[C@H](C(C)C)n2cc(-c3ccc(COc4c(-c5c(C)c(F)cc6[nH]ncc56)c(C5CC5)cc5c(N6CCC=CCC6)nc(OC[C@H](C)OC)nc45)cc3)nn2)cc1 [Example 181, (2S,4R)-1-((2S)-2-(4-(4-(((6-cyclopropyl-7-(6-fluoro-5-methyl-1H-indazol-4-yl)-2-((S)-2-methoxypropoxy)-4-(2,3,6,7-tetrahydro-1H-azepin-1-yl)quinazolin-8-yl)oxy)methyl)phenyl)-1H-1,2,3-triazol-1-yl)-3-methylbutanoyl)-N—((R)-1-(4-(1-ethyl-1H-pyrazol-5-yl)phenyl)-2-hydroxyethyl)-4-hydroxypyrrolidine-2-carboxamide]
–	< 10 nM	< 10 nM	CO[C@@H](C)COc1nc(N(C)[C@H]2CCNC2)c2cc(C3CCC3)c(-c3c(C)c(F)cc4[nH]ncc34)c(OCc3ccc(-c4cn([C@H](C(=O)N5C[C@H](O)C[C@H]5C(=O)N[C@H](c5ccc(-c6scnc6C)cc5)[C@H](C)O)C(C)C)nn4)cc3)c2n1 [Example 159, (2S,4R)-1-((2S)-2-(4-(4-(((6-cyclobutyl-7-(6-fluoro-5-methyl-1H-indazol-4-yl)-2-((S)-2-methoxypropoxy)-4-(methyl((S)-pyrrolidin-3-yl)amino)quinazolin-8-yl)oxy)methyl)phenyl)-1H-1,2,3-triazol-1-yl)-3-methylbutanoyl)-4-hydroxy-N-((1R,2S)-2-hydroxy-1-(4-(4-methylthiazol-5-yl)phenyl)propyl)pyrrolidine-2-carboxamide]
< 10 nM	10 to 100 nM	–	CCn1nccc1-c1ccc([C@H](CO)NC(=O)[C@@H]2C[C@@H](O)CN2C(=O)[C@H](C(C)C)n2cc(-c3ccc(COc4c(-c5c(C)c(F)cc6[nH]ncc56)c(C5CC5(F)F)cc5c(N6C[C@@H]7C[C@H]6CN7)nc(OC[C@H](C)OC)nc45)cc3)nn2)cc1 (stereo partly drawn) [Example 52, (2S,4R)-1-((2S)-2-(4-(4-(((4-((1S,4S)-2,5-diazabicyclo[2.2.1]heptan-2-yl)-6-(2,2-difluorocyclopropyl)-7-(6-fluoro-5-methyl-1H-indazol-4-yl)-2-((S)-2-methoxypropoxy)quinazolin-8-yl)oxy)methyl)phenyl)-1H-1,2,3-triazol-1-yl)-3-methylbutanoyl)-N—((R)-1-(4-(1-ethyl-1H-pyrazol-5-yl)phenyl)-2-hydroxyethyl)-4-hydroxypyrrolidine-2-carboxamide]
< 10 nM	< 10 nM	–	Cc1ncsc1-c1ccc([C@H](CO)NC(=O)[C@@H]2C[C@@H](O)CN2C(=O)[C@H](C(C)C)n2cc(-c3ccc(COc4c(-c5c(C)c(F)cc6[nH]ncc56)c(C5CC5)cc5c(N6C[C@@H]7C[C@H]6CN7)nc(OCC6(C(F)F)CC6)nc45)cc3)nn2)cc1 [Example 79, (2S,4R)-1-((2S)-2-(4-(4-(((4-((1S,4S)-2,5-diazabicyclo[2.2.1]heptan-2-yl)-6-cyclopropyl-2-((1-(difluoromethyl)cyclopropyl)methoxy)-7-(6-fluoro-5-methyl-1H-indazol-4-yl)quinazolin-8-yl)oxy)methyl)phenyl)-1H-1,2,3-triazol-1-yl)-3-methylbutanoyl)-4-hydroxy-N—((R)-2-hydroxy-1-(4-(4-methylthiazol-5-yl)phenyl)ethyl)pyrrolidine-2-carboxamide]
< 10 nM	< 10 nM	–	CO[C@@H](C)COc1nc(N2C[C@@H]3C[C@H]2CN3)c2cc(C3CC3)c(-c3c(C)c(F)c(Cl)c4[nH]ncc34)c(OCc3ccc(-c4cn([C@H](C(=O)N5C[C@H](O)C[C@H]5C(=O)N[C@@H](CO)c5ccc(-c6scnc6C)cc5)C(C)C)nn4)cc3)c2n1 [Example 97, (2S,4R)-1-((2S)-2-(4-(4-(((4-((1S,4S)-2,5-diazabicyclo[2.2.1]heptan-2-yl)-7-(7-chloro-6-fluoro-5-methyl-1H-indazol-4-yl)-6-cyclopropyl-2-((S)-2-methoxypropoxy)quinazolin-8-yl)oxy)methyl)phenyl)-1H-1,2,3-triazol-1-yl)-3-methylbutanoyl)-4-hydroxy-N—((R)-2-hydroxy-1-(4-(4-methylthiazol-5-yl)phenyl)ethyl)pyrrolidine-2-carboxamide]
< 10 nM	< 10 nM	–	CCn1nccc1-c1ccc([C@H](CO)NC(=O)[C@@H]2C[C@@H](O)CN2C(=O)[C@H](C(C)C)n2cc(-c3ccc(COc4c(-c5c(C)c(F)cc6[nH]ncc56)c(C5CC5)cc5c(N6C[C@@H]7C[C@H]6CN7)nc(OC[C@H](C)OC)nc45)cc3C)nn2)cc1 [Example 44, (2S,4R)-1-((2S)-2-(4-(4-(((4-((1S,4S)-2,5-diazabicyclo[2.2.1]heptan-2-yl)-6-cyclopropyl-7-(6-fluoro-5-methyl-1H-indazol-4-yl)-2-((S)-2-methoxypropoxy)quinazolin-8-yl)oxy)methyl)-2-methylphenyl)-1H-1,2,3-triazol-1-yl)-3-methylbutanoyl)-N—((R)-1-(4-(1-ethyl-1H-pyrazol-5-yl)phenyl)-2-hydroxyethyl)-4-hydroxypyrrolidine-2-carboxamide]

Structure (SMILES)	IC50 ([1]; Homo sapiens, ASPC1, 144 h)	DC50 [2]	IC50 [1]
CO[C@H]1C[C@@H](Oc2nc(N3C[C@@H]4C[C@H]3CN4)c3cc(C4CC4)c(-c4c(C)c(F)cc5[nH]ncc45)c(OCc4ccc(-c5cn([C@H](C(=O)N6C[C@H](O)C[C@H]6C(=O)N[C@@H](CO)c6ccc(-c7scnc7C)cc6)C(C)C)nn5)cc4)c3n2)C1 [Example 102, (2S,4R)-1-((2S)-2-(4-(4-(((4-((1S,4S)-2,5-diazabicyclo[2.2.1]heptan-2-yl)-6-cyclopropyl-7-(6-fluoro-5-methyl-1H-indazol-4-yl)-2-((1s,3R)-3-methoxycyclobutoxy)quinazolin-8-yl)oxy)methyl)phenyl)-1H-1,2,3-triazol-1-yl)-3-methylbutanoyl)-4-hydroxy-N—((R)-2-hydroxy-1-(4-(4-methylthiazol-5-yl)phenyl)ethyl)pyrrolidine-2-carboxamide]	< 10 nM	< 10 nM	–
CO[C@H]1C[C@H](Oc2nc(N(C)[C@@H]3CCNC3)c3cc(C4CC4)c(-c4c(C)c(F)cc5[nH]ncc45)c(OCc4ccc(-c5cn([C@H](C(=O)N6C[C@H](O)C[C@H]6C(=O)N[C@H](c6ccc(-c7scnc7C)cc6)[C@H](C)O)C(C)C)nn5)cc4)c3n2)C1 [Example 202, (2S,4R)-1-((2S)-2-(4-(4-(((6-cyclopropyl-7-(6-fluoro-5-methyl-1H-indazol-4-yl)-2-((1r,3R)-3-methoxycyclobutoxy)-4-(methyl((R)-pyrrolidin-3-yl)amino)quinazolin-8-yl)oxy)methyl)phenyl)-1H-1,2,3-triazol-1-yl)-3-methylbutanoyl)-4-hydroxy-N-((1R,2S)-2-hydroxy-1-(4-(4-methylthiazol-5-yl)phenyl)propyl)pyrrolidine-2-carboxamide]	< 10 nM	< 10 nM	–
CO[C@H]1C[C@H](Oc2nc(N(C)[C@H]3CCNC3)c3cc(C4CC4)c(-c4c(C)c(F)cc5[nH]ncc45)c(OCc4ccc(-c5cn([C@H](C(=O)N6C[C@H](O)C[C@H]6C(=O)N[C@H](c6ccc(-c7scnc7C)c7c6CC7)[C@H](C)O)C(C)C)nn5)cc4)c3n2)C1 [Example 194, (2S,4R)-1-((2S)-2-(4-(4-(((6-cyclopropyl-7-(6-fluoro-5-methyl-1H-indazol-4-yl)-2-((1r,3S)-3-methoxycyclobutoxy)-4-(methyl((S)-pyrrolidin-3-yl)amino)quinazolin-8-yl)oxy)methyl)phenyl)-1H-1,2,3-triazol-1-yl)-3-methylbutanoyl)-4-hydroxy-N-((1R,2S)-2-hydroxy-1-(5-(4-methylthiazol-5-yl)bicyclo[4.2.0]octa-1(6),2,4-trien-2-yl)propyl)pyrrolidine-2-carboxamide]	< 10 nM	< 10 nM	–
CCn1nccc1-c1cc(F)c([C@@H](NC(=O)[C@@H]2C[C@@H](O)CN2C(=O)[C@H](C(C)C)n2cc(-c3ccc(COc4c(-c5c(C)c(F)cc6[nH]ncc56)c(C5CC5)cc5c(N6C[C@@H]7C[C@H]6CN7)nc(O[C@H]6C[C@H](OC)C6)nc45)cc3)nn2)[C@H](C)O)c(F)c1 [Example 196, (2S,4R)-1-((2S)-2-(4-(4-(((4-((1S,4S)-2,5-diazabicyclo[2.2.1]heptan-2-yl)-6-cyclopropyl-7-(6-fluoro-5-methyl-1H-indazol-4-yl)-2-((1r,3S)-3-methoxycyclobutoxy)quinazolin-8-yl)oxy)methyl)phenyl)-1H-1,2,3-triazol-1-yl)-3-methylbutanoyl)-N-((1R,2S)-1-(4-(1-ethyl-1H-pyrazol-5-yl)-2,6-difluorophenyl)-2-hydroxypropyl)-4-hydroxypyrrolidine-2-carboxamide]	10 to 100 nM	10 to 100 nM	–
